The source of these data is patent US20150344540A1, “NOVEL GLP-1 RECEPTOR AGONISTS WITH CHOLESTEROL EFFLUX ACTIVITY” (NOVO NORDISK A/S, priority 2012, published 2015).

pEC50: −log10 of the molar value. Like-named read-outs stand apart in the source and are kept apart here. Where a SMILES comes first, the peptide text is derived from it. [ ]: non-standard residue; d: D form. Aib = CC(C)(N)C(=O)O

The subject of test [1] is Mouse monocyte/macrophage cell line, RAW 264.7. Description: Cholesterol efflux assay (3H-cholesterol, macrophage cell line). Format: cell-based. The settings on record: RAW 264.7, 4 hrs incubation, 0.1% human serum albumin; for 4 h Cholesterol Efflux Emax: ABCA1-mediated efflux.
In the next test the target is human GLP-1 receptor (Homo sapiens, UniProt P43220). Put plainly: Functional GLP-1 receptor assay, in vitro potency (CRE luciferase; whole cells). Format: cell-based.
Where [2] appears, read: GLP1R CRE luc 1% HSA EC50 Mean Value, BHK cells expressing human GLP-1 receptor, 1% HSA.
Where [3] appears, read: BHK cells expressing human GLP-1 receptor, 0% HSA, read-out: GLP1R CRE luc 0% HSA EC50 Mean Value.

Sequence of human GLP-1 receptor (P43220 24-463): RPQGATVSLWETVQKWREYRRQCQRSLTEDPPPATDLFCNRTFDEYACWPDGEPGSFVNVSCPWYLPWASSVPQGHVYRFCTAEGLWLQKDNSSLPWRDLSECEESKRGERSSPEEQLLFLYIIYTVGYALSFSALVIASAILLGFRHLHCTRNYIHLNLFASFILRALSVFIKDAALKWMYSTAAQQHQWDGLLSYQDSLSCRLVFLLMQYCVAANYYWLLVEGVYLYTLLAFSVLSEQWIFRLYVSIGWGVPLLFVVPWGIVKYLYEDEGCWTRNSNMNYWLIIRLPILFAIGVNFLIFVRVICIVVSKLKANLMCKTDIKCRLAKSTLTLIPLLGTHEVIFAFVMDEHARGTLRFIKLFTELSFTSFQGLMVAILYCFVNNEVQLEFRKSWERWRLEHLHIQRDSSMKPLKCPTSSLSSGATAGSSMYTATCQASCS

What is called pEC50 is the EC50 on a negative log10 scale, so that one unit is a factor of ten. Regarding `CC[C@H](C)[C@H](NC(=O)[C@H](Cc1ccccc1)NC(=O)[C@H](CCC(=O)O)NC(=O)[C@H](CCCNC(=N)N)NC(=O)[C@@H](NC(=O)[C@H](C)NC(=O)[C@H](CCC(=O)O)NC(=O)CNC(=O)[C@H](CCC(=O)O)NC(=O)[C@H](CC(C)C)NC(=O)[C@H](Cc1ccc(O)cc1)NC(=O)[C@H](CO)NC(=O)[C@H](CO)NC(=O)[C@@H](NC(=O)[C@H](CC(=O)O)NC(=O)[C@H](CO)NC(=O)[C@@H](NC(=O)[C@H](Cc1ccccc1)NC(=O)[C@@H](NC(=O)CNC(=O)[C@H](CCC(=O)O)NC(=O)C(C)(C)NC(=O)[C@@H](N)Cc1c[nH]cn1)[C@@H](C)O)[C@@H](C)O)C(C)C)C(C)C)C(=O)N[C@@H](C)C(=O)N[C@@H](Cc1c[nH]c2ccccc12)C(=O)N[C@@H](CC(C)C)C(=O)N[C@H](C(=O)N[C@@H](CCC(=O)O)C(=O)N[C@@H](CCCNC(=N)N)C(=O)N[C@H](C(=O)N[C@@H](CCCNC(=N)N)C(=O)N[C@@H](CCC(=O)O)C(=O)N[C@@H](Cc1ccccc1)C(=O)N[C@@H](CC(C)C)C(=O)N[C@@H](CCCCN)C(N)=O)C(C)C)C(C)C` [Compound 91] (H-H[Aib]EGTFTSDVSSYLEGEAVREFIAWLVERVREFLK-NH2), in test [1], the “4 h Cholesterol Efflux Emax” value was 103%. Besides, at human GLP-1 receptor (setting [2]), the negative-log EC50 (pEC50) is 9.93.
Taken in the same sequence, the figures for `CC[C@H](C)[C@H](NC(=O)[C@H](Cc1ccccc1)NC(=O)[C@H](CCC(=O)O)NC(=O)[C@H](CCCCN)NC(=O)[C@@H](NC(=O)[C@H](C)NC(=O)[C@H](CCC(=O)O)NC(=O)CNC(=O)[C@H](CCC(=O)O)NC(=O)[C@H](CC(C)C)NC(=O)[C@H](Cc1ccc(O)cc1)NC(=O)[C@H](CO)NC(=O)[C@H](CO)NC(=O)[C@@H](NC(=O)[C@H](CC(=O)O)NC(=O)[C@H](CO)NC(=O)[C@@H](NC(=O)[C@H](Cc1ccccc1)NC(=O)[C@@H](NC(=O)CNC(=O)[C@H](CCC(=O)O)NC(=O)C(C)(C)NC(=O)[C@@H](N)Cc1c[nH]cn1)[C@@H](C)O)[C@@H](C)O)C(C)C)C(C)C)C(=O)N[C@@H](CCC(N)=O)C(=O)N[C@@H](Cc1c[nH]c2ccccc12)C(=O)N[C@@H](CC(C)C)C(=O)N[C@@H](CC(C)C)C(=O)N[C@@H](CCC(=O)O)C(=O)N[C@@H](CCCCN)C(=O)NC(C)(C)C(=O)N[C@@H](CCCCN)C(=O)N[C@@H](CCC(=O)O)C(=O)N[C@@H](Cc1ccccc1)C(=O)N[C@@H](CC(C)C)C(N)=O` [Compound 79, [Aib8,Glu23,Val25,Gln30,Leu33,Glu34,Lys35,Aib36,Lys37]-GLP-1-(7-37)-peptidyl-Glu-Phe-Leu amide] (H-H[Aib]EGTFTSDVSSYLEGEAVKEFIQWLLEK[Aib]KEFL-NH2) were 100% and 10.21.
Consider `CC[C@H](C)[C@H](NC(=O)[C@H](Cc1ccccc1)NC(=O)[C@H](CCC(=O)O)NC(=O)[C@H](CCCCN)NC(=O)[C@@H](NC(=O)[C@H](C)NC(=O)[C@H](CCC(=O)O)NC(=O)[C@H](CCC(=O)O)NC(=O)[C@H](CCC(=O)O)NC(=O)[C@H](CC(C)C)NC(=O)[C@H](Cc1ccc(O)cc1)NC(=O)[C@H](CO)NC(=O)[C@H](CO)NC(=O)[C@@H](NC(=O)[C@H](CC(=O)O)NC(=O)[C@H](CO)NC(=O)[C@@H](NC(=O)[C@H](Cc1ccccc1)NC(=O)[C@@H](NC(=O)CNC(=O)[C@H](CCC(=O)O)NC(=O)C(C)(C)NC(=O)[C@@H](N)Cc1c[nH]cn1)[C@@H](C)O)[C@@H](C)O)C(C)C)C(C)C)C(=O)N[C@@H](C)C(=O)N[C@@H](Cc1c[nH]c2ccccc12)C(=O)N[C@@H](CC(C)C)C(=O)N[C@H](C(=O)N[C@@H](CCC(=O)O)C(=O)N[C@@H](CCCCN)C(=O)N[C@H](C(=O)N[C@@H](CCCCN)C(=O)N[C@@H](CCC(=O)O)C(=O)N[C@@H](Cc1ccccc1)C(=O)N[C@@H](CC(C)C)C(N)=O)C(C)C)C(C)C` [Compound 137, [Aib8,Glu22,Glu23,Val25,Glu34,Lys35,Val36,Lys37]-GLP-1-(7-37)-peptidyl-Glu-Phe-Leu amide] (H-H[Aib]EGTFTSDVSSYLEEEAVKEFIAWLVEKVKEFL-NH2), for which, in test [1], the “4 h Cholesterol Efflux Emax” value came to 108%. For the same molecule, the pEC50 on human GLP-1 receptor (setting [3]) is 9.94; on human GLP-1 receptor (setting [2]) it was 10.47.
The corresponding values for `CC[C@H](C)[C@H](NC(=O)[C@H](Cc1ccccc1)NC(=O)[C@H](CCC(=O)O)NC(=O)[C@H](CCCCN)NC(=O)[C@@H](NC(=O)[C@H](C)NC(=O)[C@H](CCC(=O)O)NC(=O)CNC(=O)[C@H](CCC(=O)O)NC(=O)[C@H](CC(C)C)NC(=O)[C@H](Cc1ccc(O)cc1)NC(=O)[C@H](CO)NC(=O)[C@H](CO)NC(=O)[C@@H](NC(=O)[C@H](CC(=O)O)NC(=O)[C@H](CO)NC(=O)[C@@H](NC(=O)[C@H](Cc1ccccc1)NC(=O)[C@@H](NC(=O)CNC(=O)[C@H](CCC(=O)O)NC(=O)C(C)(C)NC(=O)[C@@H](N)Cc1c[nH]cn1)[C@@H](C)O)[C@@H](C)O)C(C)C)C(C)C)C(=O)N[C@@H](C)C(=O)N[C@@H](Cc1c[nH]c2ccccc12)C(=O)N[C@@H](CC(C)C)C(=O)N[C@H](C(=O)N[C@@H](CCC(=O)O)C(=O)N[C@@H](CCCCN)C(=O)NC(C)(C)C(=O)N[C@@H](CCCCN)C(=O)N[C@@H](CCC(=O)O)C(=O)N[C@@H](Cc1ccccc1)C(=O)N[C@@H](CC(C)C)C(=O)N[C@@H](CCC(=O)O)C(N)=O)C(C)C` [Compound 66, [Aib8,Glu23,Val25,Glu34,Lys35,Aib36,Lys37]-GLP-1-(7-37)-peptidyl-Glu-Phe-Leu-Glu amide] are 102%, 10.00 and 10.41.
For `CC[C@H](C)[C@H](NC(=O)[C@H](Cc1ccccc1)NC(=O)[C@H](CCC(=O)O)NC(=O)[C@H](CCCCN)NC(=O)[C@@H](NC(=O)[C@H](C)NC(=O)[C@H](CCC(N)=O)NC(=O)CNC(=O)[C@H](CCC(=O)O)NC(=O)[C@H](CC(C)C)NC(=O)[C@H](Cc1ccc(O)cc1)NC(=O)[C@H](CO)NC(=O)[C@H](CO)NC(=O)[C@@H](NC(=O)[C@H](CC(=O)O)NC(=O)[C@H](CO)NC(=O)[C@@H](NC(=O)[C@H](Cc1ccccc1)NC(=O)[C@@H](NC(=O)CNC(=O)[C@H](CCC(=O)O)NC(=O)C(C)(C)NC(=O)[C@@H](N)Cc1c[nH]cn1)[C@@H](C)O)[C@@H](C)O)C(C)C)C(C)C)C(=O)N[C@@H](C)C(=O)N[C@@H](Cc1c[nH]c2ccccc12)C(=O)N[C@@H](CC(C)C)C(=O)N[C@H](C(=O)N[C@@H](CC(N)=O)C(=O)N[C@@H](CCCCN)C(=O)NC(C)(C)C(=O)N[C@@H](C)C(=O)N[C@@H](CCC(=O)O)C(=O)N[C@@H](Cc1ccccc1)C(=O)N[C@@H](CC(C)C)C(N)=O)C(C)C` [Compound 73] (H-H[Aib]EGTFTSDVSSYLEGQAVKEFIAWLVNK[Aib]AEFL-NH2), the “4 h Cholesterol Efflux Emax” value in test [1] came out at 86%. The pEC50 at human GLP-1 receptor (setting [3]) was 9.97; at human GLP-1 receptor (setting [2]), 10.21.
In the case of `CC[C@H](C)[C@H](NC(=O)[C@H](Cc1ccccc1)NC(=O)[C@H](CCC(=O)O)NC(=O)[C@H](CCCCN)NC(=O)[C@@H](NC(=O)[C@H](C)NC(=O)[C@H](CCC(=O)O)NC(=O)CNC(=O)[C@H](CCC(=O)O)NC(=O)[C@H](CC(C)C)NC(=O)[C@H](Cc1ccc(O)cc1)NC(=O)[C@H](CO)NC(=O)[C@H](CO)NC(=O)[C@@H](NC(=O)[C@H](CC(=O)O)NC(=O)[C@H](CO)NC(=O)[C@@H](NC(=O)[C@H](Cc1ccccc1)NC(=O)[C@@H](NC(=O)CNC(=O)[C@H](CCC(=O)O)NC(=O)C(C)(C)NC(=O)[C@@H](N)Cc1c[nH]cn1)[C@@H](C)O)[C@@H](C)O)C(C)C)C(C)C)C(=O)N[C@@H](C)C(=O)N[C@@H](Cc1c[nH]c2ccccc12)C(=O)N[C@@H](CC(C)C)C(=O)N[C@H](C(=O)N[C@@H](CCC(=O)O)C(=O)N[C@@H](CCCCN)C(=O)N[C@H](C(=O)N[C@@H](CCCCN)C(=O)N[C@@H](CCC(=O)O)C(=O)N[C@H](C(=O)N[C@@H](CC(C)C)C(N)=O)C(C)C)C(C)C)C(C)C` [Compound 120, [Aib8,Glu23,Val25,Glu34,Lys35,Val36,Lys37]-GLP-1-(7-37)-peptidyl-Glu-Val-Leu amide] (H-H[Aib]EGTFTSDVSSYLEGEAVKEFIAWLVEKVKEVL-NH2; N-terminus assumed), in test [1], the “4 h Cholesterol Efflux Emax” value is recorded as 142%. In addition, the pEC50 in test [1] (read-out: 4 h Cholesterol Efflux EC50, ABCA1-mediated efflux (CPT-cAMP induced minus non-induced)) is 6.42; at human GLP-1 receptor (GLP1R CRE luc 0% HSA EC50 Mean Value), 9.70.
Consider `CC[C@H](C)[C@H](NC(=O)[C@H](Cc1ccccc1)NC(=O)[C@H](CCC(=O)O)NC(=O)[C@H](CCCCN)NC(=O)[C@@H](NC(=O)[C@H](C)NC(=O)[C@H](CCC(=O)O)NC(=O)CNC(=O)[C@H](CCC(=O)O)NC(=O)[C@H](CC(C)C)NC(=O)[C@H](Cc1ccc(O)cc1)NC(=O)[C@H](CO)NC(=O)[C@H](CO)NC(=O)[C@@H](NC(=O)[C@H](CC(=O)O)NC(=O)[C@H](CO)NC(=O)[C@@H](NC(=O)[C@H](Cc1ccccc1)NC(=O)[C@@H](NC(=O)CNC(=O)[C@H](CCC(=O)O)NC(=O)C(C)(C)NC(=O)[C@@H](N)Cc1c[nH]cn1)[C@@H](C)O)[C@@H](C)O)C(C)C)C(C)C)C(=O)N[C@@H](CCCCN)C(=O)N[C@@H](Cc1c[nH]c2ccccc12)C(=O)N[C@@H](CC(C)C)C(=O)N[C@H](C(=O)N[C@@H](CCC(=O)O)C(=O)N[C@@H](CCCCN)C(=O)NC(C)(C)C(=O)N[C@@H](CCCCN)C(=O)N[C@@H](CCC(=O)O)C(=O)N[C@@H](Cc1ccccc1)C(=O)N[C@@H](CC(C)C)C(N)=O)C(C)C` [Compound 86, [Aib8,Glu23,Val25,Lys30,Glu34,Lys35,Aib36,Lys37]-GLP-1-(7-37)-peptidyl-Glu-Phe-Leu amide] (H-H[Aib]EGTFTSDVSSYLEGEAVKEFIKWLVEK[Aib]KEFL-NH2), for which the “4 h Cholesterol Efflux Emax” value in test [1] is reported as 102%. The pEC50 at human GLP-1 receptor (setting [3]) is 9.99; at human GLP-1 receptor (setting [2]), 10.37.
